Data: patent US20230114459A1, “Composition for Use in the Prophylaxis and Treatment of Viral Infections of the Asfarviridae Family” (priority 2020, published 2023)

Legend:
[1] = system: Vero cells infected with virus particles
[2] = system: African Swine Fever Virus (ASFV)

SMILES	CPE (first test) [1]	CPE (second test) [1]	Visual scoring of protection against the cytopathic effect of the virus [1]	Solubility in the test solution [1]	Cq value for ASFV compared to positive control [2]
CCCCCC(=O)O [100% C6, caproic acid]	3/3	3/3	–	–	–
CCCCCCCC(=O)O [100% C8, caprylic acid]	2/2	2/2	scored best	–	–
CCCCCCCCC(=O)O [100% C9, pelargonic acid]	2/2	2/2	–	–	–
CCCCCCCCCC(=O)O [100% C10, capric acid]	2/4	2/4	–	–	–
CCCCCCCCCCCC(=O)O [100% C12, lauric acid]	–	–	–	solubility issue was observed	–
CCCCCCCC(=O)O [Composition F1, caprylic acid]	–	–	–	–	significantly increase the Cq value
